Source: paper PMC5292209 (Biochemistry, 2016)

Biological target: T1, Protein tyrosine phosphatase 1B (PTP1B) (Homo sapiens, UniProt P18031)
T1 sequence (P18031 1-301): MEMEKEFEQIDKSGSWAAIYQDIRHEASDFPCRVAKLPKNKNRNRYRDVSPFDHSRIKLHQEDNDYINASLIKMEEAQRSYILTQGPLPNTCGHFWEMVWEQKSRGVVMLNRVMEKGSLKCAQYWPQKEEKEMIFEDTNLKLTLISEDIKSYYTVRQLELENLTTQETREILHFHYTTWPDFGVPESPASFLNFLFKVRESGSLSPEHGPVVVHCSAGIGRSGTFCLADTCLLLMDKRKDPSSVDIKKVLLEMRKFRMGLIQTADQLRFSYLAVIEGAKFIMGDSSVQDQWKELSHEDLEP

- Km: 2800 ± 100 µM
SMILES: O=[N+]([O-])c1ccc(OP(=O)(O)O)cc1 [pNPP, p-nitrophenyl phosphate]
